Results: patent US20060063944A1, “Estrone derivatives and process for producing same” (CHUGAI SEIYAKU KABUSHIKI KAISHA, priority 2002, published 2006)

How the values were obtained:
[1] = molecular target: T1, intranuclear estrogen receptor (EgR) (Homo sapiens, UniProt P03372); experiment: Estrogen receptor downregulating activity (intranuclear EgR content in MCF-7); type: cell-based; details: MCF-7 cells; for DC50: 2 days with compound, ER-EIA, read-out: IC50 (intranuclear EgR content)
T1 construct: endogenous in cells; host or cells: MCF-7 (ATCC)
Protocol: Tris(hydroxymethyl)aminomethane, dithiothreitol and glycerol were obtained from Nacalai Tesque. Protease inhibitor tablets were obtained from Boehringer Mannheim. Human breast cancer cell line MCF-7 was obtained from ATCC, fetal calf serum (FCS) from Hyclone, DMEM from Invitrogen, and PBS(−) from Nissui.
Tris-HCl buffer (1 mol/L, pH=7.4) was diluted 50-fold with distilled water to a concentration of 20 mmol/L (pH=7.4). To the diluted buffer, dithiothreitol and glycerol were added to give respective final concentrations of 1 mmol/L and 10%. Further, protease inhibitor tablets were added, with one tablet per 50 mL of buffer. The thus conditioned solution was used as a solubilizing buffer.
Samples for quantitating the intranuclear estrogen receptor (EgR) were prepared by the following procedure. MCF-7 cultivated in 5% FCS/DMEM was sown on 6-cm dishes at a concentration of 4×10^5 cells/dish and cultivated for 3 days; cultivation was continued for an additional 2 days in the presence of compound 1 or compound 2 at final concentrations of 1-100 nmol/L or in the presence of compound 4 at final concentrations of 1-1,000 nmol/L or compound 5 at final concentrations of 1-10,000 nmol/L. Thereafter, the cells were washed with PBS(−), mixed with the solubilizing buffer, subjected to two cycles of freezing at −80° C. and thawing at room temperature, and centrifuged at 4° C. for 10 minutes at 4000 rpm (centrifuge: TOMY, Model MX-150). To the precipitation, the solubilizing buffer containing 500 mmol/L of NaCl was added and the mixture was treated with a micro-tube mixer (TOMY, Model MT-360) at 4° C. for about 30 minutes. Following centrifugation at 4° C. for 30 minutes at 15,000 rpm (centrifuge: TOMY, Model MX-150), the supernatant was collected and stored at −80° C. as an extracted nuclear sample. The EgR content in the extracted nuclear sample was measured with an EgR assay kit (ER-EIA “ABBOT” of Dynapot).

[2] = AUC measurement in oral administration, test with mice; type: in vivo; details: 30 mg/kg, 5% gum arabic suspension, plasma; for AUC∞: ICR mice; for AUC(0-inf): female, ICR, mouse, po
Protocol: (§1) The AUC of specified compounds in oral administration was measured by the following tests.
A 5% gum arabic suspension (10 ml/kg) of a test substance (30 mg/kg) was forcibly administered orally into ICR mice (female, 8-10 week old) by means of a mouse stomach probe and after the lapse of specified periods of time (15 minutes, 30 minutes, and 1, 2, 4, 6, 8, 24 and 48 hours), whole blood was taken from the abdominal large vein (n=3 for each time period). The concentration of the test substance in the sampled plasma was measured by HPLC (eluant: acetonitrile/water) and AUC was determined by moment analysis from the average plasma concentration for each time period. The test substances were compound 1, compound 2, compound 4 and compound 5. Two control compounds were used, one being the first component prepared in step 1 of Example 1 (control compound 2) and the other being the second component (control compound 1).

[3] = tested on: increase in the weight of the uterus induced by 17β-estradiol benzoate; experiment: Anti-estrogen activity in oral administration (suppression of estradiol-induced increase in uterus weight in ovariectomized mice); type: in vivo; details: ovariectomized ICR mice, oral 10 mg/kg once a day for 3 days, 17β-estradiol benzoate 0.1 μg s.c.
Protocol: In the test, each of the test compounds and a control compound were suspended in a 5% gum arabic solution and administered to the mice orally in doses of 10 mg/kg on a once-a-day basis for 3 days. Twenty-four hours after the administration of the final dose, the test animals were slaughtered and the uterus was extracted and its weight was measured.

[4] = AUC measurement in oral administration, test with monkeys; type: in vivo; details: female, cynomolgus monkey, 3 mg/kg, PEG/water/ethanol solution, plasma
Protocol: as §1
A PEG/water/ethanol [8/4/3 (v/v)] solution (3 ml/kg) of a test substance (3 mg/kg) was administered orally into cynomolgus monkeys (female, 3-5 years old, 2.5-4 kg) through a catheter inserted from the nostrils into the stomach and about 1 ml of blood was taken over a period of 48 hours at specified time intervals (15 minutes, 30 minutes, and 1, 2, 4, 6, 8, 10, 24 and 48 hours). The concentration of the test substance in the sampled plasma was measured by use of LC/MS/MS (ESI, eluant: acetonitrile/water) and AUC was determined by moment analysis. The test substances were compound 1 and compound 4. The second component prepared in step 1 of Example 1 was used as control compound 1.

[5] = tested on: bone marrow derived osteoclast precursor cells; experiment: Differentiation of bone marrow derived osteoclast precursor cells into mature osteoclasts (TRAP staining); type: cell-based, ddY mice; details: mean ± SD, n=3, 48-well plates
Protocol: Bone marrow cells separated from the vertebrae of ddY mice (male, 7-9 week old) were cultivated on cell culture plates for 3 days in the presence of a macrophage colony-stimulating factor (M-CSF, 10 ng/ml). The suspended cells were washed with PBS and removed whereas the cells adhering to the plates were used as osteoclast precursor cells. Following the addition of more M-CSF (10 ng/ml) and a soluble RANK ligand (sRANKL, 40 ng/ml), the precursors were cultivated for 3-4 days in order to induce the maturation of osteoclasts. Before this cultivation, either compound 1 or a solvent (ethanol) alone was added in order to see what effects they would have. The maturation of osteoclasts was evaluated by staining the cultivated cells with a tartrate resistant acid phosphatase (TRAP) and counting the number of trinuclear and higher TRAP stained cells. Table 1 and FIG. 1 show the mean and SD values for the experiment in which the number of mature osteoclasts that were produced per well in 48-well plates was evaluated for n=3.

breast cancer = details: cited from earlier work

T1 sequence (P03372 whole entry): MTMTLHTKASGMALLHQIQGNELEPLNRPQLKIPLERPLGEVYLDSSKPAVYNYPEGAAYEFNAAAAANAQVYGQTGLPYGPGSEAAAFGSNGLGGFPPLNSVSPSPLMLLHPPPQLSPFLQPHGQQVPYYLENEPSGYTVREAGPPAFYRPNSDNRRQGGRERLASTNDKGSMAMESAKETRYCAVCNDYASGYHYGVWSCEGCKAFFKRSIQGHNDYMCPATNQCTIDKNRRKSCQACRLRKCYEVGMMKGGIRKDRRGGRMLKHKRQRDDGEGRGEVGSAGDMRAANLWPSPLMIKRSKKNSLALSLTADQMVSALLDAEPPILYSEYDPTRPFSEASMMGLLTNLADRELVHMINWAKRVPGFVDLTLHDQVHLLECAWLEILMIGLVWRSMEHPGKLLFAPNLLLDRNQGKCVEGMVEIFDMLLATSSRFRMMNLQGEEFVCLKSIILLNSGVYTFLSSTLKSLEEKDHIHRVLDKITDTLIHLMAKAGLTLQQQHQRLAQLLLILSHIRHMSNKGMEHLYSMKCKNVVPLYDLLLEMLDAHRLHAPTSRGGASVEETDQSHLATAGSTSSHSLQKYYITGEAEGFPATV

Structure (SMILES) | Intranuclear EgR content (in words) [1] | DC50 [1] | AUC∞ [2] | AUC(0-inf) [4] | also measured
C[C@]12CC[C@@H]3c4ccc(O)cc4C[C@@H](CCCCCCCCC(CCCC(F)(F)C(F)(F)C(F)(F)C(F)(F)F)C(=O)O)[C@H]3[C@@H]1CCC2=O (single isomer, unassigned) [Compound 2, 10-(3-hydroxy-17-oxo-estra-1,3,5(10)-trien-7α-yl)-2-(4,4,5,5,6,6,7,7,7-nonafluoroheptyl)decanoic acid] | reduced the intranuclear EgR content in a dose-dependent manner | 8.7 nM | 722.55 µg·h/mL | – | –
C#C[C@]1(O)CCC2C3C(CC[C@@]21C)c1ccc(O)cc1C[C@H]3CCCCCCCCC(CCCC(F)(F)C(F)(F)C(F)(F)C(F)(F)F)C(=O)O (single isomer, unassigned) [Compound 5, 10-(3,17β-dihydroxy-17α-ethynyl-estra-1,3,5(10)-trien-7α-yl)-2-(4,4,5,5,6,6,7,7,7-nonafluoroheptyl)decanoic acid] | reduced the intranuclear EgR content in a dose-dependent manner | 100 nM | 661.00 µg·h/mL | – | Percent suppression (%) of the increase in the weight of the uterus ([3]; 10 mg/kg): 96%
C[C@]12CC[C@@H]3c4ccc(O)cc4C[C@@H](CCCCCCCCC(CCCC(F)(F)C(F)(F)C(F)(F)C(F)(F)F)C(=O)O)[C@H]3[C@@H]1CC[C@@H]2O (single isomer, unassigned) [Control compound 2, 10-(3,17β-dihydroxyestra-1,3,5(10)-trien-7α-yl)-2-(4,4,5,5,6,6,7,7,7-nonafluoroheptyl)decanoic acid, reference compound] | – | – | 469.73 µg·h/mL | – | –
C#C[C@]1(O)CCC2C3C(CC[C@@]21C)c1ccc(O)cc1C[C@H]3CCCCCCCCC(CCCC(F)(F)C(F)(F)C(F)(F)C(F)(F)F)C(=O)O (single isomer, unassigned) [Compound 4, 10-(3,17β-dihydroxy-17α-ethynyl-estra-1,3,5(10)-trien-7α-yl)-2-(4,4,5,5,6,6,7,7,7-nonafluoroheptyl)decanoic acid] | reduced the intranuclear EgR content in a dose-dependent manner | 14 nM | 202.10 µg·h/mL | 3.8 µg·h/mL | Percent suppression (%) of the increase in the weight of the uterus ([3]; 10 mg/kg): 94%
C[C@]12CC[C@@H]3c4ccc(O)cc4C[C@@H](CCCCCCCCC(CCCC(F)(F)C(F)(F)C(F)(F)C(F)(F)F)C(=O)O)[C@H]3[C@@H]1CC[C@@H]2O (single isomer, unassigned) [Control compound 1, 10-(3,17β-dihydroxyestra-1,3,5(10)-trien-7α-yl)-2-(4,4,5,5,6,6,7,7,7-nonafluoroheptyl)decanoic acid, reference compound] | – | – | – | 0.42 µg·h/mL | AUC(0-inf) [2]: 274 µg·h/mL
C[C@]12C[C@H](CCCCCCCCC(CCCC(F)(F)C(F)(F)C(F)(F)C(F)(F)F)C(=O)O)[C@@H]3c4ccc(O)cc4CC[C@H]3[C@@H]1CCC2=O (stereo partly drawn) [Compound 3, 10-(3-hydroxy-17-oxo-estra-1,3,5(10)-trien-11β-yl)-2-(4,4,5,5,6,6,7,7,7-nonafluoroheptyl)decanoic acid] | – | – | – | – | Percent suppression (%) of the increase in the weight of the uterus [3]: 99%
C[C@]12CC[C@@H]3c4ccc(O)cc4C[C@@H](CCCCCCCCC(CCCC(F)(F)C(F)(F)C(F)(F)C(F)(F)F)C(=O)O)[C@H]3[C@@H]1CCC2=O (single isomer, unassigned) [Compound 1, 10-(3-hydroxy-17-oxo-estra-1,3,5(10)-trien-7α-yl)-2-(4,4,5,5,6,6,7,7,7-nonafluoroheptyl)decanoic acid] | reduced the intranuclear EgR content in a dose-dependent manner | 8.4 nM | – | 2.42 µg·h/mL | No. of mature osteoclasts per well ([5]; M-CSF + sRANKL + compound at 10^−4 mol/L): 0 ± 0; No. of mature osteoclasts per well ([5]; M-CSF + sRANKL + compound at 10^−5 mol/L): 34 ± 10; Percent suppression (%) of the increase in the weight of the uterus [3]: 96%; AUC(0-inf) [2]: 468 µg·h/mL
C[C@]12CC[C@@H]3c4ccc(O)cc4C[C@@H](CCCCCCCCC[S+]([O-])CCCC(F)(F)C(F)(F)F)[C@H]3[C@@H]1CC[C@@H]2O (stereo partly shown) [Faslodex] | – | – | – | – | Objective response rate and duration of response to breast cancer (breast cancer; clinical tests, versus a SERM drug and an aromatase inhibitor): superior to a SERM drug and an aromatase inhibitor; Efficacy against tamoxifen-resistant breast cancer (breast cancer; tamoxifen-resistant breast cancer): effective against tamoxifen-resistant breast cancer
